From patent US20080009418A1, “Selective Inhibitors” (Alchemia LTD., priority 2004, published 2008)

How the values were obtained:
Human Melanocortin (MC4) = molecular target: T1, Human Melanocortin (MC4) (Homo sapiens, UniProt P32245); test: Radioligand binding, human melanocortin MC4 membranes, FlashPlate, [125I]-NDP-αMSH; conditions: compound at 10 μM; [125I]-NDP-αMSH, human MC4 membranes
T1 construct: purchased Perkin Elmer Biosignal
Summary of the method: (§1)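 Cloned human receptor membranes were coated onto FlashPlate wells and incubated with radioligand and compound (added from a 0.5 mM DMSO daughter plate) for 1 hour at room temperature in the dark. Scintillation counting gave percent inhibition, with DMSO defining total and reference ligand defining non-specific binding.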

Human opioid (ORL1) = molecular target: T2, Human opioid (ORL1) (Homo sapiens, UniProt P41146); test: Radioligand binding, human opioid ORL1 membranes, FlashPlate, [125I]-Nociceptin; conditions: compound at 10 μM; [125I]-Nociceptin, human ORL1 membranes
T2 construct: purchased Perkin Elmer Biosignal
Summary of the method: as §1

Human Melanocortin (MC3) = molecular target: T3, Human Melanocortin (MC3) (Homo sapiens, UniProt P41968); test: Radioligand binding, human melanocortin MC3 membranes, FlashPlate, [125I]-NDP-αMSH; conditions: compound at 10 μM; [125I]-NDP-αMSH, human MC3 membranes
T3 construct: purchased Perkin Elmer Biosignal
Summary of the method: as §1

Human κ-Opioid (KOP) = molecular target: T4, Human κ-Opioid (KOP) (Homo sapiens, UniProt P41145); test: Radioligand binding, human κ-opioid (KOP) membranes, filtration, [3H]-Diprenorphine; conditions: compound at 10 μM; [3H]-Diprenorphine, human KOP membranes
T4 construct: purchased Perkin Elmer Biosignal
Summary of the method: (§2)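 Membranes from cloned human receptors were incubated with compound and radioligand for 1 hour at room temperature. Bound ligand was collected on 0.3% PEI-soaked filters, washed with cold 50 mM Tris-HCl pH 7.4, and counted by scintillation. Percent inhibition was computed against DMSO totals and reference-ligand nonspecific wells.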

[1] = molecular target: T5, Human neuropeptide Y (NPY-Y1) (Homo sapiens, UniProt P25929); test: Radioligand binding, human neuropeptide Y NPY-Y1 membranes, FlashPlate, [125I]-PYY; conditions: compound at 10 μM; [125I]-PYY, human NPY-Y1 membranes
T5 construct: purchased Perkin Elmer Biosignal
T5 sequence (P25929 1-384): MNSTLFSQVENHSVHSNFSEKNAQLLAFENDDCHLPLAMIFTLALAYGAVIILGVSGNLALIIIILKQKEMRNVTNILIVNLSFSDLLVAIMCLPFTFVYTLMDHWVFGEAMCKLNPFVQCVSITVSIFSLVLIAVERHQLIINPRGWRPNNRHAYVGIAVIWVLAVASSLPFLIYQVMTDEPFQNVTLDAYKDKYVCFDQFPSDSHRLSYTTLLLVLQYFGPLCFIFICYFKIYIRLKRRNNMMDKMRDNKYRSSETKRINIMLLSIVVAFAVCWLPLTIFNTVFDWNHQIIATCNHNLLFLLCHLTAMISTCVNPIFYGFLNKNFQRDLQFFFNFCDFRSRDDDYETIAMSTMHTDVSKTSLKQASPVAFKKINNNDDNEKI
Summary of the method: as §1

Human δ-opioid (DOP) = molecular target: T6, Human δ-opioid (DOP) (Homo sapiens, UniProt P41143); test: Radioligand binding, human δ-opioid (DOP) membranes, FlashPlate, [3H]-Bremazocine; conditions: compound at 10 μM; [3H]-Bremazocine, human DOP membranes
T6 construct: purchased Perkin Elmer Biosignal
Summary of the method: as §1

Mouse urotensin (mUR2) = molecular target: T7, Mouse urotensin (mUR2) (Mus musculus, UniProt Q8VIH9); test: Radioligand binding, mouse urotensin mUR2 membranes, FlashPlate, [125I]-Urotensin II; conditions: compound at 10 μM; [125I]-Urotensin II, mouse mUR2 membranes
T7 construct: purchased Perkin Elmer Biosignal
T7 sequence (Q8VIH9 1-385): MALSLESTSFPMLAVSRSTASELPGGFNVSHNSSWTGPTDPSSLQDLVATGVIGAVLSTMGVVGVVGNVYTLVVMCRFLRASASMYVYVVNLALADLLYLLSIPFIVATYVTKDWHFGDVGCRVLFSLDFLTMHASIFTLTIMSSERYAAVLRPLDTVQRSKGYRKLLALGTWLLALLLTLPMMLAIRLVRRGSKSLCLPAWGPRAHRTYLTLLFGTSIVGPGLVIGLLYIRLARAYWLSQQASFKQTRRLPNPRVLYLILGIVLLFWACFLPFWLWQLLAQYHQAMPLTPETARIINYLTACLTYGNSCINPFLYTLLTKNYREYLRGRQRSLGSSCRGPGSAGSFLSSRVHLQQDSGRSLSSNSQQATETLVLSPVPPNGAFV
Summary of the method: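 Cloned mouse urotensin (mUR2) receptor membranes from Perkin Elmer Biosignal were immobilized in FlashPlate microplates using a proprietary coating. Each well got 19.5 μl buffer, then 0.5 μl of DMSO, reference ligand, or compound. Adding 5 μl of [125I]-Urotensin II, diluted to 5× final concentration in binding buffer, started binding. Plates were sealed with TopSeal-A and incubated 1 hour at room temperature in the dark. Wells were counted for 30 seconds each on a TopCount after a 60-second delay, and percentage inhibition was calculated.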

Human neurokinin (NK1) = molecular target: T8, Human neurokinin (NK1) (Homo sapiens, UniProt P25103); test: Radioligand binding, human neurokinin NK1 membranes, filtration, [125I]-Substance P; conditions: compound at 10 μM; [125I]-Substance P, human NK1 membranes
T8 construct: purchased Perkin Elmer Biosignal
Summary of the method: as §2

Human μ-opioid (MOP) = molecular target: T9, Human μ-opioid (MOP) (Homo sapiens, UniProt P35372); test: Radioligand binding, human μ-opioid (MOP) membranes, FlashPlate, [3H]-Naloxone; conditions: compound at 10 μM; [3H]-Naloxone, human MOP membranes
T9 construct: purchased Perkin Elmer Biosignal
Summary of the method: as §1

Human melanocortin (MC5) = molecular target: T10, Human melanocortin (MC5) (Homo sapiens, UniProt P33032); test: Radioligand binding, human melanocortin MC5 membranes, FlashPlate, [125I]-NDP-αMSH; conditions: compound at 10 μM; [125I]-NDP-αMSH, human MC5 membranes
T10 construct: purchased Perkin Elmer Biosignal
Summary of the method: as §1

[2] = molecular target: T11, Human melanin-concentrating hormone (MCH1) (Homo sapiens, UniProt Q99705); test: Radioligand binding, human melanin-concentrating hormone MCH1 membranes, FlashPlate, [125I]-S36057; conditions: compound at 10 μM; [125I]-S36057, human MCH1 membranes
T11 construct: purchased Perkin Elmer Biosignal
Summary of the method: as §1

T8 sequence (P25103 whole entry): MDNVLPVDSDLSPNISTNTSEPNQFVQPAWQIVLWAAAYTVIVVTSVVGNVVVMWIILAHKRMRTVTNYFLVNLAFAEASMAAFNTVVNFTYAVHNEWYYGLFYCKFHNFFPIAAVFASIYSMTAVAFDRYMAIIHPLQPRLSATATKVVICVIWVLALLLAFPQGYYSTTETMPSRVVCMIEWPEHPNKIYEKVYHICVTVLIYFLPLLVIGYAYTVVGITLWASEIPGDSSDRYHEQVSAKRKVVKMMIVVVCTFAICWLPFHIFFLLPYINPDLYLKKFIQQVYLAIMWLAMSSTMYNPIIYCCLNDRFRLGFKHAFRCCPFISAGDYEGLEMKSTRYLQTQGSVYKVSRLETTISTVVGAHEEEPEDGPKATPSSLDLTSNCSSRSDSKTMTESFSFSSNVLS
T11 sequence (Q99705 whole entry): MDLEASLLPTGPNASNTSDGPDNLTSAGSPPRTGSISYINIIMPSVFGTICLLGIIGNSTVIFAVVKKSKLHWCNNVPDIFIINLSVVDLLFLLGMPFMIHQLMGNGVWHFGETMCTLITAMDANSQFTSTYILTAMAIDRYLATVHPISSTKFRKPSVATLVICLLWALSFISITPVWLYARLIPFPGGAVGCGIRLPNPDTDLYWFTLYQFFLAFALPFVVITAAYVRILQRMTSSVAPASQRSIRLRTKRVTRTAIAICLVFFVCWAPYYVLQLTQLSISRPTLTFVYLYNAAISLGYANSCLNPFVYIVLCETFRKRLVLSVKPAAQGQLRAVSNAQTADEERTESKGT
T1 sequence (P32245 whole entry): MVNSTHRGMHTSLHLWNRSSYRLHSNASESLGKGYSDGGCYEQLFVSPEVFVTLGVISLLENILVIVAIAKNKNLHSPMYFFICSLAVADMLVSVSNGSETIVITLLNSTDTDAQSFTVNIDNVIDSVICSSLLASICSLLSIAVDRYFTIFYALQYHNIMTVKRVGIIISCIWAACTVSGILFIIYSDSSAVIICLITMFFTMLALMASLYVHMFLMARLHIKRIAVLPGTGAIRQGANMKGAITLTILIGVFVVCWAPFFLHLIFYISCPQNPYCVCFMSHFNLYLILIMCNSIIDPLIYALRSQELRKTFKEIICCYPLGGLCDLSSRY
T3 sequence (P41968 whole entry): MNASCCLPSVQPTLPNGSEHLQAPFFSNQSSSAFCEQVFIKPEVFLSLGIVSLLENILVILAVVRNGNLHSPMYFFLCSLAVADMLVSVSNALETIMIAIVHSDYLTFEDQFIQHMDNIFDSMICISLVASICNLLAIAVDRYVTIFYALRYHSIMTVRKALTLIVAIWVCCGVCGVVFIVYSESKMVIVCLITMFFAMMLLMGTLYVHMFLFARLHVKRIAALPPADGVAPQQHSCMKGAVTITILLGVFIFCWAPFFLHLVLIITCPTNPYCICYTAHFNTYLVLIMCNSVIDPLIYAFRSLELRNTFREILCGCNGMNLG
T9 sequence (P35372 whole entry): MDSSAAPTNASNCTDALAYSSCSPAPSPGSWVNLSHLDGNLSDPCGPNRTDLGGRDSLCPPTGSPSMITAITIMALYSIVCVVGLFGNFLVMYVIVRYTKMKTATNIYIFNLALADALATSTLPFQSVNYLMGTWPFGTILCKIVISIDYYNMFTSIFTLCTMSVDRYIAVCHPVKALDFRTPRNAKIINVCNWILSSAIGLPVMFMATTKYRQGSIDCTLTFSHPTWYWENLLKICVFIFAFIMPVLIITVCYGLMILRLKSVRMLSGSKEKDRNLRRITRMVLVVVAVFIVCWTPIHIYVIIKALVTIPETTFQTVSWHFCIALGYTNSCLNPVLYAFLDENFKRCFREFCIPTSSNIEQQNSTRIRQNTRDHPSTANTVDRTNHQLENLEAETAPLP
T4 sequence (P41145 whole entry): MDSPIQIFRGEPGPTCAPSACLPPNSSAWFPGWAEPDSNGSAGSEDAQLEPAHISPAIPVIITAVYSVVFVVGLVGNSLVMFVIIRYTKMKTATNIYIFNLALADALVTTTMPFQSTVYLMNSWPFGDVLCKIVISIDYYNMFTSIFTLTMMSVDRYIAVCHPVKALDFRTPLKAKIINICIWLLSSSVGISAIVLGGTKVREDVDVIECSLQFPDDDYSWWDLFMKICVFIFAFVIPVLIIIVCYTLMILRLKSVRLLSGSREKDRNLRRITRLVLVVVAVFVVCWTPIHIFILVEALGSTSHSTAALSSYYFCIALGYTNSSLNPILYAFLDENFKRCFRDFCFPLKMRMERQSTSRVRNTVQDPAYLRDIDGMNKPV
T10 sequence (P33032 whole entry): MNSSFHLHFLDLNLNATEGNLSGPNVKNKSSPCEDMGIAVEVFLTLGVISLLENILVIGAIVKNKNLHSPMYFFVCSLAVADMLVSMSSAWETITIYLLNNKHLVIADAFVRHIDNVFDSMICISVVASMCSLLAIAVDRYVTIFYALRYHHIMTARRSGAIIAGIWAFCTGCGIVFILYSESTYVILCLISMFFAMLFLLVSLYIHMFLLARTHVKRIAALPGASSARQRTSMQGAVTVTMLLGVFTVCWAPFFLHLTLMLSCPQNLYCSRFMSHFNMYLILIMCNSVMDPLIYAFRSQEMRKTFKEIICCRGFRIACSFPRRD
T6 sequence (P41143 whole entry): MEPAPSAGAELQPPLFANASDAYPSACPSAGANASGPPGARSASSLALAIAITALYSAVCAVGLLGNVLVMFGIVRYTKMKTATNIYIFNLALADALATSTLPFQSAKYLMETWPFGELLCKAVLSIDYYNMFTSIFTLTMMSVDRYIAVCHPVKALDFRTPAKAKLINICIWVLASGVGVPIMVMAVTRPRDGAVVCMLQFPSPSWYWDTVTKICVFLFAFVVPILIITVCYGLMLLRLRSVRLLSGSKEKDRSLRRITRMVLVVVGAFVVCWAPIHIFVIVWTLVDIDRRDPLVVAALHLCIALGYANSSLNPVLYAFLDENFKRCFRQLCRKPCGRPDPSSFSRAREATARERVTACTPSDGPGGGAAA
T2 sequence (P41146 whole entry): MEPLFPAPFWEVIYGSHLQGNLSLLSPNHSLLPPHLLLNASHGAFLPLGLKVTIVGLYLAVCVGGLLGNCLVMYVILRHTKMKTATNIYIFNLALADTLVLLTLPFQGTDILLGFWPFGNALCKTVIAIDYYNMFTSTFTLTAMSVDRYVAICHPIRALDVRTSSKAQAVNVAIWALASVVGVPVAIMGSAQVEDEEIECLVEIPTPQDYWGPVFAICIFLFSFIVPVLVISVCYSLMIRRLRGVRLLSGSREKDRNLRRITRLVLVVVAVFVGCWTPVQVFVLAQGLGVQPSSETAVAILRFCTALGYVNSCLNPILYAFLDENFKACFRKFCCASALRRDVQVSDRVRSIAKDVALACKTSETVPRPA

Row | SMILES | A4: inhibition of radioligand binding (Human Melanocortin (MC4)) | A10: inhibition of radioligand binding (Human opioid (ORL1)) | A3: inhibition of radioligand binding (Human Melanocortin (MC3)) | A2: inhibition of radioligand binding (Human κ-Opioid (KOP)) | A9: inhibition of radioligand binding [1] | A1: inhibition of radioligand binding (Human δ-opioid (DOP)) | A11: inhibition of radioligand binding (Mouse urotensin (mUR2)) | A8: inhibition of radioligand binding (Human neurokinin (NK1)) | A7: inhibition of radioligand binding (Human μ-opioid (MOP)) | A5: inhibition of radioligand binding (Human melanocortin (MC5)) | A6: inhibition of radioligand binding [2]
1 | N=C(N)NCCC(=O)NC1C(OCc2ccc(Cl)cc2)OC(COCc2ccc(Cl)cc2)C(O)C1OCc1ccc(Cl)cc1 (stereo not shown) [compound 428] | + (“+” indicates greater than 50% inhibition at 10 μM) | + (“+” indicates greater than 50% inhibition at 10 μM) | + (“+” indicates greater than 50% inhibition at 10 μM) | − (“−” indicates less than 50% inhibition at 10 μM) | − (“−” indicates less than 50% inhibition at 10 μM) | − (“−” indicates less than 50% inhibition at 10 μM) | − (“−” indicates less than 50% inhibition at 10 μM) | + (“+” indicates greater than 50% inhibition at 10 μM) | − (“−” indicates less than 50% inhibition at 10 μM) | + (“+” indicates greater than 50% inhibition at 10 μM) | + (“+” indicates greater than 50% inhibition at 10 μM)
2 | N=C(N)NCCC(=O)NC1C(OCc2ccc(Cl)cc2)OC(COCc2ccc3ccccc3c2)C(O)C1OCc1ccc2ccccc2c1 (stereo not shown) [compound 429] | + (“+” indicates greater than 50% inhibition at 10 μM) | − (“−” indicates less than 50% inhibition at 10 μM) | + (“+” indicates greater than 50% inhibition at 10 μM) | − (“−” indicates less than 50% inhibition at 10 μM) | − (“−” indicates less than 50% inhibition at 10 μM) | − (“−” indicates less than 50% inhibition at 10 μM) | − (“−” indicates less than 50% inhibition at 10 μM) | + (“+” indicates greater than 50% inhibition at 10 μM) | − (“−” indicates less than 50% inhibition at 10 μM) | + (“+” indicates greater than 50% inhibition at 10 μM) | + (“+” indicates greater than 50% inhibition at 10 μM)
3 | N=C(N)NCCC(=O)NC1C(OCc2ccc(Cl)cc2)OC(COCc2ccccc2)C(O)C1OCc1ccc2ccccc2c1 (stereo not shown) [compound 430] | + (“+” indicates greater than 50% inhibition at 10 μM) | + (“+” indicates greater than 50% inhibition at 10 μM) | + (“+” indicates greater than 50% inhibition at 10 μM) | − (“−” indicates less than 50% inhibition at 10 μM) | − (“−” indicates less than 50% inhibition at 10 μM) | − (“−” indicates less than 50% inhibition at 10 μM) | − (“−” indicates less than 50% inhibition at 10 μM) | + (“+” indicates greater than 50% inhibition at 10 μM) | − (“−” indicates less than 50% inhibition at 10 μM) | + (“+” indicates greater than 50% inhibition at 10 μM) | + (“+” indicates greater than 50% inhibition at 10 μM)
4 | N=C(N)NCCC(=O)NC1C(OCc2ccc(Cl)cc2)OC(COCc2ccc(Cl)cc2)C(O)C1OCc1ccc2ccccc2c1 (stereo not shown) [compound 431] | + (“+” indicates greater than 50% inhibition at 10 μM) | + (“+” indicates greater than 50% inhibition at 10 μM) | + (“+” indicates greater than 50% inhibition at 10 μM) | − (“−” indicates less than 50% inhibition at 10 μM) | − (“−” indicates less than 50% inhibition at 10 μM) | − (“−” indicates less than 50% inhibition at 10 μM) | − (“−” indicates less than 50% inhibition at 10 μM) | + (“+” indicates greater than 50% inhibition at 10 μM) | − (“−” indicates less than 50% inhibition at 10 μM) | + (“+” indicates greater than 50% inhibition at 10 μM) | + (“+” indicates greater than 50% inhibition at 10 μM)
5 | N=C(N)NCCC(=O)NC1C(OCc2ccc(Cl)cc2)OC(COCc2ccc3ccccc3c2)C(O)C1OCc1ccc(-c2ccccc2)cc1 (stereo not shown) [compound 432] | + (“+” indicates greater than 50% inhibition at 10 μM) | − (“−” indicates less than 50% inhibition at 10 μM) | + (“+” indicates greater than 50% inhibition at 10 μM) | − (“−” indicates less than 50% inhibition at 10 μM) | − (“−” indicates less than 50% inhibition at 10 μM) | − (“−” indicates less than 50% inhibition at 10 μM) | − (“−” indicates less than 50% inhibition at 10 μM) | + (“+” indicates greater than 50% inhibition at 10 μM) | − (“−” indicates less than 50% inhibition at 10 μM) | + (“+” indicates greater than 50% inhibition at 10 μM) | + (“+” indicates greater than 50% inhibition at 10 μM)
